Values of other authors, collected in publication PMC3674230 (Chemical communications (Cambridge, England), 2012).

System: Zn(II)-dependent matrix metalloproteinases (MMP)
Details: direct metal coordination

- IC50: ~25 mM
SMILES: CC(=O)NO [acetohydroxamic acid]
